# Reference: PubChem BioAssay (NCI)
#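 All cell lines were grown in 96-well plates and treated with compound for 48 hours. Here, GI50 denotes the concentration required for 50% inhibition of growth. The concentration for full growth arrest is given as TGI.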
# Experiments:
# Test in all cases: DTP human tumour cell line panel, 48 h
# SN12C renal = test system: SN12C renal
# BT-549 breast = test system: BT-549 breast
# SR leukemia = test system: SR leukemia
# COLO 205 colon = test system: COLO 205 colon
# NCI/ADR-RES ovarian = test system: NCI/ADR-RES ovarian
# UO-31 renal = test system: UO-31 renal
# 786-0 renal = test system: 786-0 renal
# SNB-19 CNS = test system: SNB-19 CNS
# DU-145 prostate = test system: DU-145 prostate
# ACHN renal = test system: ACHN renal
# SK-MEL-2 melanoma = test system: SK-MEL-2 melanoma
# T-47D breast = test system: T-47D breast
# MDA-MB-231 breast = test system: MDA-MB-231 breast
# CCRF-CEM leukemia = test system: CCRF-CEM leukemia
# HCT-116 colon = test system: HCT-116 colon
# SF-539 CNS = test system: SF-539 CNS
# TK-10 renal = test system: TK-10 renal
# SK-MEL-5 melanoma = test system: SK-MEL-5 melanoma
# SK-MEL-28 melanoma = test system: SK-MEL-28 melanoma
# A498 renal = test system: A498 renal
# SF-295 CNS = test system: SF-295 CNS
# HOP-62 NSCLC = test system: HOP-62 NSCLC
# HCT-15 colon = test system: HCT-15 colon
# U251 CNS = test system: U251 CNS
# NCI-H23 lung = test system: NCI-H23 lung
# KM12 colon = test system: KM12 colon
# SW-620 colon = test system: SW-620 colon
# OVCAR-3 ovarian = test system: OVCAR-3 ovarian
# EKVX NSCLC = test system: EKVX NSCLC
# K-562 leukemia = test system: K-562 leukemia
# NCI-H522 lung = test system: NCI-H522 lung
# NCI-H226 lung = test system: NCI-H226 lung
# RPMI-8226 leukemia = test system: RPMI-8226 leukemia
# OVCAR-5 ovarian = test system: OVCAR-5 ovarian
# LOX IMVI melanoma = test system: LOX IMVI melanoma
# UACC-62 melanoma = test system: UACC-62 melanoma
# MALME-3M melanoma = test system: MALME-3M melanoma
# MDA-MB-435 = test system: MDA-MB-435
# HL-60(TB) leukemia = test system: HL-60(TB) leukemia
# MCF7 breast = test system: MCF7 breast
# MOLT-4 leukemia = test system: MOLT-4 leukemia
# SK-OV-3 ovarian = test system: SK-OV-3 ovarian
# HOP-92 NSCLC = test system: HOP-92 NSCLC
# IGROV1 ovarian = test system: IGROV1 ovarian
# HCC-2998 colon = test system: HCC-2998 colon
# OVCAR-4 ovarian = test system: OVCAR-4 ovarian
# M14 melanoma = test system: M14 melanoma
# HT29 colon = test system: HT29 colon
# NCI-H460 lung = test system: NCI-H460 lung
# SNB-75 CNS = test system: SNB-75 CNS
# OVCAR-8 ovarian = test system: OVCAR-8 ovarian
# PC-3 prostate = test system: PC-3 prostate
# A549 NSCLC = test system: A549 NSCLC
# HS 578T breast = test system: HS 578T breast
# SF-268 CNS = test system: SF-268 CNS
# UACC-257 melanoma = test system: UACC-257 melanoma
# CAKI-1 renal = test system: CAKI-1 renal
compound,measurement,setting,value
COc1ccc2cc(C(=O)N3CCC([C@@H](C)C(=O)NCc4ccc5c(c4)OCO5)CC3)[nH]c2c1,GI50,SN12C renal,> 100 µM
same,TGI,SN12C renal,> 100 µM
same,GI50,BT-549 breast,43.7 µM
same,TGI,BT-549 breast,> 100 µM
same,GI50,SR leukemia,> 100 µM
same,TGI,SR leukemia,> 100 µM
same,GI50,COLO 205 colon,> 100 µM
same,TGI,COLO 205 colon,> 100 µM
same,GI50,NCI/ADR-RES ovarian,> 100 µM
same,TGI,NCI/ADR-RES ovarian,> 100 µM
same,GI50,UO-31 renal,> 100 µM
same,TGI,UO-31 renal,> 100 µM
same,GI50,786-0 renal,36.7 µM
same,TGI,786-0 renal,> 100 µM
same,GI50,SNB-19 CNS,56.7 µM
same,TGI,SNB-19 CNS,> 100 µM
same,GI50,DU-145 prostate,> 100 µM
same,TGI,DU-145 prostate,> 100 µM
same,GI50,ACHN renal,48.1 µM
same,TGI,ACHN renal,> 100 µM
same,GI50,SK-MEL-2 melanoma,> 100 µM
same,TGI,SK-MEL-2 melanoma,> 100 µM
same,GI50,T-47D breast,> 100 µM
same,TGI,T-47D breast,> 100 µM
same,GI50,MDA-MB-231 breast,> 100 µM
same,TGI,MDA-MB-231 breast,> 100 µM
same,GI50,CCRF-CEM leukemia,> 100 µM
same,TGI,CCRF-CEM leukemia,> 100 µM
same,GI50,HCT-116 colon,> 100 µM
same,TGI,HCT-116 colon,> 100 µM
same,GI50,SF-539 CNS,> 100 µM
same,TGI,SF-539 CNS,> 100 µM
same,GI50,TK-10 renal,> 100 µM
same,TGI,TK-10 renal,> 100 µM
same,GI50,SK-MEL-5 melanoma,> 100 µM
same,TGI,SK-MEL-5 melanoma,> 100 µM
same,GI50,SK-MEL-28 melanoma,> 100 µM
same,TGI,SK-MEL-28 melanoma,> 100 µM
same,GI50,A498 renal,> 100 µM
same,TGI,A498 renal,> 100 µM
same,GI50,SF-295 CNS,68.5 µM
same,TGI,SF-295 CNS,> 100 µM
same,GI50,HOP-62 NSCLC,45.9 µM
same,TGI,HOP-62 NSCLC,> 100 µM
same,GI50,HCT-15 colon,> 100 µM
same,TGI,HCT-15 colon,> 100 µM
same,GI50,U251 CNS,> 100 µM
same,TGI,U251 CNS,> 100 µM
same,GI50,NCI-H23 lung,> 100 µM
same,TGI,NCI-H23 lung,> 100 µM
same,GI50,KM12 colon,> 100 µM
same,TGI,KM12 colon,> 100 µM
same,GI50,SW-620 colon,> 100 µM
same,TGI,SW-620 colon,> 100 µM
same,GI50,OVCAR-3 ovarian,> 100 µM
same,TGI,OVCAR-3 ovarian,> 100 µM
same,GI50,EKVX NSCLC,> 100 µM
same,TGI,EKVX NSCLC,> 100 µM
same,GI50,K-562 leukemia,79.4 µM
same,TGI,K-562 leukemia,> 100 µM
same,GI50,NCI-H522 lung,> 100 µM
same,TGI,NCI-H522 lung,> 100 µM
same,GI50,NCI-H226 lung,> 100 µM
same,TGI,NCI-H226 lung,> 100 µM
same,GI50,RPMI-8226 leukemia,> 100 µM
same,TGI,RPMI-8226 leukemia,> 100 µM
same,GI50,OVCAR-5 ovarian,> 100 µM
same,TGI,OVCAR-5 ovarian,> 100 µM
same,GI50,LOX IMVI melanoma,50.1 µM
same,TGI,LOX IMVI melanoma,> 100 µM
same,GI50,UACC-62 melanoma,28.1 µM
same,TGI,UACC-62 melanoma,> 100 µM
same,GI50,MALME-3M melanoma,> 100 µM
same,TGI,MALME-3M melanoma,> 100 µM
same,GI50,MDA-MB-435,51.2 µM
same,TGI,MDA-MB-435,> 100 µM
same,GI50,HL-60(TB) leukemia,> 100 µM
same,TGI,HL-60(TB) leukemia,> 100 µM
same,GI50,MCF7 breast,> 100 µM
same,TGI,MCF7 breast,> 100 µM
same,GI50,MOLT-4 leukemia,> 100 µM
same,TGI,MOLT-4 leukemia,> 100 µM
same,GI50,SK-OV-3 ovarian,> 100 µM
same,TGI,SK-OV-3 ovarian,> 100 µM
same,GI50,HOP-92 NSCLC,23.4 µM
same,TGI,HOP-92 NSCLC,> 100 µM
same,GI50,IGROV1 ovarian,> 100 µM
same,TGI,IGROV1 ovarian,> 100 µM
same,GI50,HCC-2998 colon,> 100 µM
same,TGI,HCC-2998 colon,> 100 µM
same,GI50,OVCAR-4 ovarian,> 100 µM
same,TGI,OVCAR-4 ovarian,> 100 µM
same,GI50,M14 melanoma,> 100 µM
same,TGI,M14 melanoma,> 100 µM
same,GI50,HT29 colon,> 100 µM
same,TGI,HT29 colon,> 100 µM
same,GI50,NCI-H460 lung,> 100 µM
same,TGI,NCI-H460 lung,> 100 µM
same,GI50,SNB-75 CNS,17.8 µM
same,TGI,SNB-75 CNS,78.3 µM
same,GI50,OVCAR-8 ovarian,48.4 µM
same,TGI,OVCAR-8 ovarian,> 100 µM
same,GI50,PC-3 prostate,> 100 µM
same,TGI,PC-3 prostate,> 100 µM
same,GI50,A549 NSCLC,> 100 µM
same,TGI,A549 NSCLC,> 100 µM
same,GI50,HS 578T breast,27.9 µM
same,TGI,HS 578T breast,> 100 µM
same,GI50,SF-268 CNS,77.3 µM
same,TGI,SF-268 CNS,> 100 µM
Brc1ccc2nc(-c3cccs3)nc(N3CCN(c4ccccc4)CC3)c2c1,TGI,SN12C renal,> 100 µM
same,TGI,BT-549 breast,> 100 µM
same,TGI,SR leukemia,> 100 µM
same,TGI,COLO 205 colon,> 100 µM
same,TGI,UACC-257 melanoma,> 100 µM
same,TGI,NCI/ADR-RES ovarian,> 100 µM
same,TGI,UO-31 renal,> 100 µM
same,TGI,786-0 renal,> 100 µM
same,TGI,SNB-19 CNS,> 100 µM
same,TGI,DU-145 prostate,> 100 µM
same,TGI,ACHN renal,> 100 µM
same,TGI,SK-MEL-2 melanoma,> 100 µM
same,TGI,T-47D breast,> 100 µM
same,TGI,MDA-MB-231 breast,> 100 µM
same,TGI,HCT-116 colon,> 100 µM
same,TGI,SF-539 CNS,> 100 µM
same,TGI,TK-10 renal,> 100 µM
same,TGI,SK-MEL-5 melanoma,> 100 µM
same,TGI,SK-MEL-28 melanoma,> 100 µM
same,TGI,A498 renal,> 100 µM
same,TGI,SF-295 CNS,> 100 µM
same,TGI,HOP-62 NSCLC,> 100 µM
same,TGI,HCT-15 colon,> 100 µM
same,TGI,U251 CNS,> 100 µM
same,TGI,CAKI-1 renal,> 100 µM
same,TGI,NCI-H23 lung,> 100 µM
same,TGI,KM12 colon,> 100 µM
same,TGI,SW-620 colon,> 100 µM
same,TGI,OVCAR-3 ovarian,> 100 µM
same,TGI,EKVX NSCLC,> 100 µM
same,TGI,K-562 leukemia,> 100 µM
same,TGI,NCI-H522 lung,> 100 µM
same,TGI,NCI-H226 lung,> 100 µM
same,TGI,RPMI-8226 leukemia,> 100 µM
same,TGI,OVCAR-5 ovarian,> 100 µM
same,TGI,LOX IMVI melanoma,> 100 µM
same,TGI,UACC-62 melanoma,> 100 µM
same,TGI,MALME-3M melanoma,> 100 µM
same,TGI,MDA-MB-435,> 100 µM
same,TGI,HL-60(TB) leukemia,> 100 µM
same,TGI,MCF7 breast,> 100 µM
same,TGI,SK-OV-3 ovarian,> 100 µM
same,TGI,HOP-92 NSCLC,> 100 µM
same,TGI,IGROV1 ovarian,> 100 µM
same,TGI,HCC-2998 colon,> 100 µM
same,TGI,OVCAR-4 ovarian,> 100 µM
same,TGI,M14 melanoma,> 100 µM
same,TGI,HT29 colon,> 100 µM
same,TGI,NCI-H460 lung,> 100 µM
same,TGI,SNB-75 CNS,> 100 µM
same,TGI,OVCAR-8 ovarian,> 100 µM
same,TGI,PC-3 prostate,> 100 µM
same,TGI,A549 NSCLC,> 100 µM
same,TGI,HS 578T breast,> 100 µM
same,TGI,SF-268 CNS,> 100 µM
